This note sets out measurements from US20220040123A1, “ANTI-HELICOBACTER FOOD COMPOSITION COMPRISING BETA-CARYOPHYLLENE” (priority 2018, published 2022).

The test system of test [1] is Helicobacter pylori. Kind of test: RT-PCR of H. pylori-specific 16S rRNA in stomach tissue of infected animals. It counts as in vivo, Mongolian gerbils. Conditions: groups treated with 100 mg/kg and 500 mg/kg. How it is done: (§1) Mongolian gerbils were infected with a Helicobacter pylori strain (ATCC 49503) and then subjected to two weeks of acclimatization. To this end, the animals were fasted for 12 hours before and after inoculation with the Helicobacter pylori strain. 500 μl (1×10^9 CFU) of a bacterial suspension was prepared by suspending H. pylori in sterile physiological saline to a concentration of 2×10^9 CFU/ml and introduced directly into the stomach by using a feeding needle. For stable infection, the H. pylori strain was dispensed three times at 48 hour-intervals.
(§2) Beta-caryophyllene was administered directly into the gastrointestinal at doses of 100 mg/kg and 500 mg/kg for the low and high dose groups, respectively, for 12 weeks after two weeks after infection with H. pylori. The same amount of corn oil as the beta-caryophyllene was administered to each of the non-infected group and the infected group.
To confirm H. pylori infection, the stomach tissues of the four animal groups prepared in the H. pylori-infected animal preparation process shown in Experimental Example 2 were subjected to RT-PCR in order to examine whether H. pylori-specific 16S rRNA would be detected.

Test [2] has as its system Helicobacter pylori. Kind of test: Immunohistochemical staining of gastric mucosa and submucosal layer with Helicobacter pylori-specific antibody. It counts as in vivo, Mongolian gerbils. How it is done: as §1, §2
At weeks 0, 6 and 12 of the experiment, a paraffin block was prepared from with the stomach tissue of the infected animal model, and then stomach tissue slide sample with a thickness of 2 μm was prepared from the paraffin block using a microtome (Leica). For immunohistochemical staining, the slide was deparaffinized, heated with citrate buffer in a bath for 20 minutes, and then subjected to immunohistochemical staining using an IHC kit (Vectastain ABC kit, Vector). […]

Test [3] concerns CagA, VacA and SecA proteins. Kind of test: Western blotting of H. pylori toxins CagA, VacA and SecA. It counts as cell-based, Helicobacter pylori. Conditions: 125, 250 and 500 μg/ml, 3 days culture. The procedure: To evaluate the effect of beta-caryophyllene treatment on the production of toxins secreted by Helicobacter pylori, Helicobacter pylori was treated with beta-caryophyllene, and then the amounts of CagA, VacA and SecA proteins were analyzed by Western blotting.
For Western blotting, samples obtained by treating Helicobacter pylori with beta-caryophyllene at concentrations of 0, 125, 250 and 500 μg/ml and culturing the treated Helicobacter pylori for 3 days were lysed with RIPA lysis buffer (Millipore) on ice for 30 minutes and then centrifuged. The supernatants were collected, and then proteins therein were quantified using a spectrophotometer (Infinite M200, TECAN).
Equal amounts of protein samples were loaded and electrophoresed on 10% SDS polyacrylamide gel, and the protein fractions were transferred to nitrocellulose membranes (PALL) and reacted with CagA (mouse monoclonal IgG antibody, Santa Cruz), VacA (rabbit polyclonal IgG antibody, Santa Cruz), SecA (rabbit polyclonal IgG antibody, produced by the applicant) and anti-Helicobacter pylori (rabbit polyclonal IgG antibody, produced by the applicant) antibodies at 4° C. for 16 hours. After completion of the primary antibody reaction, secondary blocking (1 hr/RT) was performed. As secondary antibodies, donkey anti-rabbit IgG-HRP, donkey anti-mouse IgG-HRP or donkey anti-goat IgG-HRP (Santa Cruz) was used depending on the primary antibody. The reaction products were treated by an enhanced chemiluminescence kit (Thermo), and then analyzed by Chemidoc (Fusion solo, Vilber Lourmat).
(Immunoblotting shows a protein as a band on a membrane.)

Test [4] relates to sabA, hopZ, hpaA, alpA, alpB and babA genes. Kind of test: RT-PCR of genes involved in the adhesion of H. pylori. It counts as cell-based, Helicobacter pylori. Conditions: 31.25-500 μg/ml. The procedure: In order to evaluate the effect of beta-caryophyllene against the adhesion function of H. pylori, changes in the expression of the genes sabA, hopZ, hpaA, alpA, alpB and babA involved in the adhesion of H. pylori were analyzed, and the results are shown in FIG. 8. Specifically, H. pylori was treated with beta-caryophyllene at concentrations of 31.25, 62.5, 125, 250 and 500 μg/ml, and the expression of the genes was analyzed by RT-PCR.

The subject of test [5] is dnaA, dnaN, holB and polA genes. As to the kind of experiment: Expression of DNA synthesis-related genes of H. pylori. Conditions: 31.25-500 μg/ml. In kind it is cell-based, Helicobacter pylori. The procedure: DNA replication is essential for the proliferation of Helicobacter pylori, and RNA synthesis (transcription process) is a process essential for protein synthesis in organisms. Thus, unless normal RNA synthesis occurs, normal life activity cannot be maintained. Accordingly, in order to evaluate the inhibitory effect of beta-caryophyllene against the proliferation of H. pylori, H. pylori was treated with beta-caryophyllene at concentrations of 31.25, 62.5, 125, 250 and 500 μg/ml, and changes in the expression of the DNA synthesis-related genes dnaA, dnaN, holB and polA were analyzed, and the results are shown in FIG. 10.

Test [6] concerns virB2, virB4, virB5, virB6, virB7, virB8, virB9, virB10 and virD4 genes. Kind of test: RT-PCR of type IV secretion system (T4SS) genes. In kind it is cell-based, Helicobacter pylori. Conditions: 31.25-500 μg/ml. The procedure:
In order to evaluate the inhibitory effect of beta-caryophyllene against the CagA toxin injection ability of Helicobacter pylori, expression of virB2, virB4, virB5, virB6, virB7, virB8, virB9, virB10 and virD4 genes associated with the type IV secretion system (T4SS) structure required to inject the CagA toxin into a host cell was analyzed, and the results are shown in FIG. 11. Specifically, Helicobacter pylori was treated with beta-caryophyllene at concentrations of 31.25, 62.5, 125, 250 and 500 μg/ml, and expression of the genes was analyzed by RT-PCR.

The next test relates to H. pylori. Kind of test: CLO score after the CLO test. It counts as in vivo, C57BL/6 mouse. Conditions: for CLO score: 28 days, score 0-3, control G3 2.10. How it is done: In order to compare the Helicobacter pylori eradiation effect between beta-caryophyllene and the antibiotics that are used for treatment of Helicobacter pylori infection, an animal test was performed using the test groups and doses shown in Table 1 below.
Each test substance was suspended in an excipient according to the dose and administered to each mouse once a day at the same time every day for a total of 28 days in a dose of 5 ml per kg mouse (C57BL/6 mouse) by oral gavage method.
The mean and standard deviation of each group were calculated, and the difference between the values of the groups was compared, and the results are shown in Table 3 below.

For `C=C1CC/C=C(\C)CC[C@@H]2[C@@H]1CC2(C)C` [beta-caryophyllene], the “Helicobacter pylori eradication rate” value with Helicobacter pylori [1] (first value, week 6 (or 100 mg/kg; wording ambiguous)) is on record as 90.4%. The “Helicobacter pylori eradication rate” value in the test with Helicobacter pylori [1] (second value, week 12 (or 500 mg/kg; wording ambiguous)) is recorded as 95.8%. Also, the “Helicobacter pylori infection in gastric mucosa and submucosal layer (IHC)” value with Helicobacter pylori [2] (week 6, low dose (100 mg/kg) and high dose (500 mg/kg) groups vs infected group) is reported as “significantly decreased”. Further, the “Helicobacter pylori detection in gastric mucosa (IHC)” value in the test with Helicobacter pylori [2] (week 12, low dose (100 mg/kg) and high dose (500 mg/kg) groups vs infected group) is “hardly detected”. In test [3], the “secretion of CagA (Western blot)” value is “inhibited”, the “secretion of SecA (Western blot)” value is recorded as “inhibited” and the “secretion of VacA (Western blot)” value is given as “inhibited”. Moreover, in test [4], the “expression of alpA gene” value is on record as “decreased”, the “expression of alpB gene” value is given as “decreased” and the “expression of babA gene” value was “decreased”. In test [5], the “expression of dnaA gene” value is “increased”, the “expression of dnaN gene” value is given as “significantly decreased”, the “expression of holB gene” value is given as “significantly decreased” and the “expression of polA gene” value is “increased”. Besides, in test [6], the “expression of virB2 gene” value is recorded as “significantly decreased”, the “expression of virB4 gene” value is recorded as “significantly decreased” and the “expression of virB8 gene” value is “significantly decreased”. Also, in the test on H. pylori (G6: 100 mg/kg/day), the CLO score amounted to 1.2. The “decrease of CLO score compared to G3” value in the test on H. pylori (G6: 100 mg/kg/day, not statistically significant) came to 42.9%. Besides, the CLO score with H. pylori (G7: 200 mg/kg/day) is on record as 1.11. For the same molecule, the “decrease of CLO score compared to G3” value in the test with H. pylori (G7: 200 mg/kg/day, not statistically significant) stood at 47.1%. Besides, the CLO score in the test with H. pylori (G8: 500 mg/kg/day) is recorded as 0.5. Also, the “decrease of CLO score compared to G3” value with H. pylori (G8: 500 mg/kg/day, statistically significant) turned out to be 76.2%.
